This experiment relates to rat. The experiment can be described thus: CFA-Induced Paw Radiant Heat Hypersensitivity. It counts as in vivo. The settings on record: CFA thermal hypersensitivity, 30 mg/kg p.o., HPβCD, group mean values, last time point 180 or 300 min. On the procedure:
Each rat was placed in a test chamber on a warm glass surface and allowed to acclimate for approximately 10 min. A radiant thermal stimulus (beam of light) was then focused through the glass onto the plantar surface of each hind paw in turn. The thermal stimulus was automatically shut off by a photoelectric relay when the paw was moved or when the cut-off time was reached (20 sec for radiant heat at ˜5 amps). An initial (baseline) response latency to the thermal stimulus was recorded for each animal prior to the injection of complete Freund's adjuvant (CFA). 24 h following intraplantar CFA injection, the response latency of the animal to the thermal stimulus was then re-evaluated and compared to the animal's baseline response time. […] Post-compound treatment withdrawal latencies were assessed at fixed time intervals, typically 30, 60, 120, 180, and 300 min.
The percent reversal (% R) of hypersensitivity was calculated in one of two different ways: 1) using group mean values or 2) using individual animal values. […]
Method 1. For all compounds, the % R of hypersensitivity was calculated using the mean value for groups of animals at each time point according to the following formula: % reversal=[(group treatment response−group CFA response)/(group baseline response−group CFA response)]×100 Results are given for the maximum % reversal observed for each compound at any time point tested. […]

SMILES strings stand for the structures.

`O=C(c1ccc(-c2cccc(C(F)(F)F)c2)c(Cl)c1)N1CC(N2CCN(C(=O)c3cscn3)CC2)C1` [Cpd 1102]: the “Method 1: peak % reversal” value is given as 38%.

The values are drawn from US8697684B2, “Azetidinyl diamides as monoacylglycerol lipase inhibitors” (Janssen Pharmaceutica NV, priority 2009, dated 2014).
